Results reported in patent US7423157B2, “Substituted benzimidazoles and their use for inducing apoptosis” (Basilea Pharmaceutica AG, priority 2004, dated 2008).

Columns and labels:
[1] = system: Jurkat; assay: Hoechst 33342 nuclear staining, Jurkat; format: cell-based, human; conditions: 48 h
Protocol: (§1) This assay is performed in 96 well tissue culture plates. Appropriate number of cells (adherent cells: 3-5*10^3, suspension cells: 8-10*10^3) are being seeded out in 80 μl complete medium. Adherent cells are incubated for 24 h for proper spreading out before addition of test compounds while suspension cells are immediately treated with test compounds after seeding out. The test compounds are added in 20 μl complete medium containing max 5% DMSO. The final compound concentrations in the assays are 10 μM, 3 μM, 1 μM and 0.3 μM, respectively. […] The assay plates are then further incubated for 30 minutes and subsequently analyzed with a standard inverted fluorescence microscope.
(§2) The readout allows the determination of the fraction of apoptotic nuclei as well as other morphological criteria specific for apoptosis as a function of the treatment. The following scores are used: 0 relating to no activity, 1 relating to weak activity comprising less than 50% of the cells and score 2 relating to strong activity comprising more than 50% of the cells.

[2] = system: HeLa; assay: MTS proliferation assay, HeLa; format: cell-based, human; conditions: 72 h incubation
Protocol: (§3) The assay is performed in 96 well tissue culture plates. The cells (range: 1.5*10^3-10^4) are seeded out in 80 μl complete medium 24 h prior to compound treatment. The test compounds are added in 20 μl complete medium containing max 5% DMSO. The final compound concentrations in the assays are 10 μM, 3 μM, 1 μM and 0.3 μM, respectively. The assay plates are incubated for 72 h at culture conditions. The MTS reagent is prepared according to the manufacturer's protocol (Promega G1111). 20 μl MTS reagent are added to each well, the assay plates are quickly spun and incubated for another 3 h at culture conditions. Subsequently, the plates are shortly shaked and absorption measured with a microplate-reader at 492 nm.

[3] = system: PBLs; assay: Hoechst 33342 nuclear staining, PBLs; format: cell-based; design: key: 0 = no activity, 1 = weak (<50% of cells), 2 = strong (>50% of cells); conditions: 48 h
Protocol: as §1, §2

[4] = system: Jily; assay: Hoechst 33342 nuclear staining, Jily; format: cell-based; conditions: 48 h
Protocol: as §1, §2

[5] = system: HeLa; assay: Hoechst 33342 nuclear staining, HeLa; format: cell-based, human; conditions: 48 h
Protocol: as §1, §2

[6] = system: MRC5; assay: Hoechst 33342 nuclear staining, MRC5; format: cell-based; design: key: 0 = no activity, 1 = weak (<50% of cells), 2 = strong (>50% of cells); conditions: MRC5, 48 h
Protocol: as §1, §2

[7] = system: H460; assay: Hoechst 33342 nuclear staining, H460; format: cell-based, human; conditions: H460, 48 h
Protocol: as §1, §2

[8] = system: Jurkat; assay: MTS proliferation assay, Jurkat; format: cell-based, human; conditions: 72 h incubation
Protocol: as §3

Nc1ccc(C(=O)Cn2c(-n3ncnc3N)nc3ccccc32)cn1 [Example 14]
Hoechst 33342 nuclear staining score ([1]; conc. 0.3 (μM)): 2 (score 2 relating to strong activity comprising more than 50% of the cells)
Hoechst 33342 nuclear staining score ([1]; conc. 1 (μM)): 2 (score 2 relating to strong activity comprising more than 50% of the cells)
Hoechst 33342 nuclear staining score ([1]; conc. 3 (μM)): 2 (score 2 relating to strong activity comprising more than 50% of the cells)
Hoechst 33342 nuclear staining score ([1]; conc. 10 (μM)): 2 (score 2 relating to strong activity comprising more than 50% of the cells)
IC50 [2]: 100 to 1000 nM
Hoechst 33342 nuclear staining score ([3]; conc. 0.3 (μM)): 0
Hoechst 33342 nuclear staining score ([3]; conc. 1 (μM)): 0
Hoechst 33342 nuclear staining score ([3]; conc. 3 (μM)): 0
Hoechst 33342 nuclear staining score ([3]; conc. 10 (μM)): 0
Hoechst 33342 nuclear staining score ([4]; conc. 0.3 (μM)): 2 (score 2 relating to strong activity comprising more than 50% of the cells)
Hoechst 33342 nuclear staining score ([4]; conc. 1 (μM)): 2 (score 2 relating to strong activity comprising more than 50% of the cells)
Hoechst 33342 nuclear staining score ([4]; conc. 3 (μM)): 2 (score 2 relating to strong activity comprising more than 50% of the cells)
Hoechst 33342 nuclear staining score ([4]; conc. 10 (μM)): 2 (score 2 relating to strong activity comprising more than 50% of the cells)
Hoechst 33342 nuclear staining score ([5]; conc. 0.3 (μM)): 2 (score 2 relating to strong activity comprising more than 50% of the cells)
Hoechst 33342 nuclear staining score ([5]; conc. 1 (μM)): 2 (score 2 relating to strong activity comprising more than 50% of the cells)
Hoechst 33342 nuclear staining score ([5]; conc. 3 (μM)): 2 (score 2 relating to strong activity comprising more than 50% of the cells)
Hoechst 33342 nuclear staining score ([5]; conc. 10 (μM)): 2 (score 2 relating to strong activity comprising more than 50% of the cells)
Hoechst 33342 nuclear staining score ([6]; conc. 0.3 (μM)): 1 (1 relating to weak activity comprising less than 50% of the cells)
Hoechst 33342 nuclear staining score ([6]; conc. 1 (μM)): 1 (1 relating to weak activity comprising less than 50% of the cells)
Hoechst 33342 nuclear staining score ([6]; conc. 3 (μM)): 1 (1 relating to weak activity comprising less than 50% of the cells)
Hoechst 33342 nuclear staining score ([6]; conc. 10 (μM)): 1 (1 relating to weak activity comprising less than 50% of the cells)
Hoechst 33342 nuclear staining score ([7]; conc. 0.3 (μM)): 2 (score 2 relating to strong activity comprising more than 50% of the cells)
Hoechst 33342 nuclear staining score ([7]; conc. 1 (μM)): 2 (score 2 relating to strong activity comprising more than 50% of the cells)
Hoechst 33342 nuclear staining score ([7]; conc. 3 (μM)): 2 (score 2 relating to strong activity comprising more than 50% of the cells)
Hoechst 33342 nuclear staining score ([7]; conc. 10 (μM)): 2 (score 2 relating to strong activity comprising more than 50% of the cells)
IC50 [8]: < 100 nM
